Values after ≈ are worked out from the molar mass of the structure shown.
Experiments:
[1] = tested on: PKB Ser473 phosphorylation in Rat1-myr-HA-p110 delta cells; assay: Reverse protein array assay, PKB Ser473 phosphorylation in Rat1-myr-p110 delta cells; format: cell-based; details: read-out: p-PKB IC50
Method in brief: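 Measured: PKB Ser473 phosphorylation by reverse protein array in Rat1 cells expressing myr-HA-p110 alpha, beta or delta, after 30 min compound treatment at 37 °C with 0.2% DMSO vehicle.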

Solubility at pH 6.8 = format: physicochemical; details: pH 6.8, aqueous buffer, thermodynamic from solid; read-out: solubility
Method in brief: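 Solubility was measured at pH 6.8 following the cited Zhou et al. (2007) procedure.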

mTOR = target: T1, mTOR (Homo sapiens, UniProt P42345); assay: Biochemical assay for m-TOR by TR-FRET; details: 8 μM ATP, 400 nM GFP-4EBP1, 0.5 nM mTOR
T1 construct: purchased Invitrogen Corporation (Carlsbad/CA, USA) PV4753
Method in brief: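 Steps: ATP (8 μM final) plus GFP-4EBP1 (400 nM final) combined with mTOR (0.5 nM final), incubated at rt; buffer HEPES pH 7.5 with 10 mM MnCl2, NaCl, EGTA, DTT. Then stopped with EDTA/Tb3+-anti-p4EBP1 pT46 Ab (0.5 nM). Plates read after 15 min.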

[2] = tested on: S6 Ribosomal Protein phosphorylation Ser235/236 in TSC1 null mouse embryo fibroblast (MEF) cells; assay: Reverse protein array assay, S6 Ribosomal Protein phosphorylation Ser235/236 in TSC1 null MEF cells; format: cell-based; details: 1 h, pS6 ribosomal protein Ser235/236, 60 minutes incubation, read-out: p-S6 IC50
Method in brief: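 TSC1−/− MEFs, seeded and held ≥20 h at 37 °C/5% CO2, were exposed to 8-step serial compound dilutions (0.02% DMSO final; DMSO vehicle control) for 60 min at 37 °C. Cells were then lysed on ice for 10 min and lysates spotted onto reverse protein array chips.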

T1 sequence (P42345 1360-2549 limits assumed): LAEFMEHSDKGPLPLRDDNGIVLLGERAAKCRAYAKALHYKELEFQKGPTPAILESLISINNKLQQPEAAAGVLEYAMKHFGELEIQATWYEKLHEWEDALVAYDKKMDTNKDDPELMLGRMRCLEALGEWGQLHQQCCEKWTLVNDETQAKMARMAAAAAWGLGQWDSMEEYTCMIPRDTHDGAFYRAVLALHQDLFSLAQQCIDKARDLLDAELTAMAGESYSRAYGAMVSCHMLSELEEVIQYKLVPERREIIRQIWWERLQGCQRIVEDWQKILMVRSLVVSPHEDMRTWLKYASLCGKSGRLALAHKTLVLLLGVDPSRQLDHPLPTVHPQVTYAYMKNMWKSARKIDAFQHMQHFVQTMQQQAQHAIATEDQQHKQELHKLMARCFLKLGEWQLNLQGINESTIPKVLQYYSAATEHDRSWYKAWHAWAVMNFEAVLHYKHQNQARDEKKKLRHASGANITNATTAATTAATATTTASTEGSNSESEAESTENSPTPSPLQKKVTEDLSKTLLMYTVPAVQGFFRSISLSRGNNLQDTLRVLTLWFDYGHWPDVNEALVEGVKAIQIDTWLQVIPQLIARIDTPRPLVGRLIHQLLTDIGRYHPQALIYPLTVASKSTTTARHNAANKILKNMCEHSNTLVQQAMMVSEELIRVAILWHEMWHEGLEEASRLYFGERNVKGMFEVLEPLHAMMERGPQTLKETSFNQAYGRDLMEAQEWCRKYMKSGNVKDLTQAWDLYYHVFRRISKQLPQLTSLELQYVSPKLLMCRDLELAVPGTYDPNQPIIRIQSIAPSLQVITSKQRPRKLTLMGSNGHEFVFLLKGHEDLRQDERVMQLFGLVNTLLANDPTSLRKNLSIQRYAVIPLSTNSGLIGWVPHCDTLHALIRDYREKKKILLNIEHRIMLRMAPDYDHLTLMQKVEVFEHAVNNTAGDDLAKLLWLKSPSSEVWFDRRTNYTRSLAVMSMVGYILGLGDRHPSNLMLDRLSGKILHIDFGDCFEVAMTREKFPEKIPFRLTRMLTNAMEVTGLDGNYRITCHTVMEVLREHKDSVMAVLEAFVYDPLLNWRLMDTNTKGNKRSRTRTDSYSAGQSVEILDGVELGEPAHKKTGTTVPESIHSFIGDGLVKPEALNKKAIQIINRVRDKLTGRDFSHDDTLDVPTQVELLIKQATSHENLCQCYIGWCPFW

SMILES	IC50 [1] [nM]	solubility (Solubility at pH 6.8) [µg/mL]	IC50 (mTOR) [nM]	IC50 [2] [nM]
COc1ccc(-c2ccc3ncc4c(c3c2)n(-c2ccnn2C)c(=O)n4C)cn1 [Example 2.2, 8-(6-Methoxy-pyridin-3-yl)-3-methyl-1-(2-methyl-2H-pyrazol-3-yl)-1,3-dihydro-imidazo[4,5-c]quinolin-2-one]	541	4 (≈ 10.4 µM)	347	
CCNc1ncc(-c2ccc3ncc4c(c3c2)n(-c2c(C)nn(C)c2C)c(=O)n4C)cc1C(F)(F)F [Example 145.1, 8-(6-Ethylamino-5-trifluoromethyl-pyridin-3-yl)-3-methyl-1-(1,3,5-trimethyl-1H-pyrazol-4-yl)-1,3-dihydro-imidazo[4,5-c]quinolin-2-one]	280		172	50
CNc1ncc(-c2ccc3ncc4c(c3c2)n(-c2cn(C(C)C)nc2C)c(=O)n4C)cc1Cl [Example 146.3, 8-(5-Chloro-6-methylamino-pyridin-3-yl)-1-(1-isopropyl-3-methyl-1H-pyrazol-4-yl)-3-methyl-1,3-dihydro-imidazo[4,5-c]quinolin-2-one]	24		9	3
CNc1ncc(-c2ccc3ncc4c(c3c2)n(-c2c(C)noc2C)c(=O)n4C)cc1Cl [Example 146.6, 8-(5-Chloro-6-methylamino-pyridin-3-yl)-1-(3,5-dimethyl-isoxazol-4-yl)-3-methyl-1,3-dihydro-imidazo[4,5-c]quinolin-2-one]	564		479	278
CCNc1ncc(-c2ccc3ncc4c(c3c2)n(-c2cn(C)nc2C)c(=O)n4C)cc1Cl [Example 147, 8-(5-Chloro-6-ethylamino-pyridin-3-yl)-1-(1,3-dimethyl-1H-pyrazol-4-yl)-3-methyl-1,3-dihydro-imidazo[4,5-c]quinolin-2-one]	86		11	5.53
Cc1nn(C)cc1-n1c(=O)n(C)c2cnc3ccc(-c4cnc(F)c(N(C)C)c4)cc3c21 [Example 151, 8-(5-Dimethylamino-6-fluoro-pyridin-3-yl)-1-(1,3-dimethyl-1H-pyrazol-4-yl)-3-methyl-1,3-dihydro-imidazo[4,5-c]quinolin-2-one]	40		15	4
CNc1cc(-c2ccc3ncc4c(c3c2)n(-c2c(C)nn(C)c2C)c(=O)n4C)cnc1CO [Example 158.4, 8-(6-Hydroxymethyl-5-methylamino-pyridin-3-yl)-3-methyl-1-(1,3,5-trimethyl-1H-pyrazol-4-yl)-1,3-dihydro-imidazo[4,5-c]quinolin-2-one]	95		70	150
CCOCc1cc(-c2ccc3ncc4c(c3c2)n(-c2cn(CC)nc2C)c(=O)n4C)cnc1N [Example 166.2, 8-(6-Amino-5-ethoxymethyl-pyridin-3-yl)-1-(1-ethyl-3-methyl-1H-pyrazol-4-yl)-3-methyl-1,3-dihydro-imidazo[4,5-c]quinolin-2-one]	50		55	2.26
COCc1cc(-c2ccc3ncc4c(c3c2)n(-c2cn(C(C)C)nc2C)c(=O)n4C)cnc1N [Example 168.1, 8-(6-Amino-5-methoxymethyl-pyridin-3-yl)-1-(1-isopropyl-3-methyl-1H-pyrazol-4-yl)-3-methyl-1,3-dihydro-imidazo[4,5-c]quinolin-2-one]	50		12	1
Cc1cc(-n2c(=O)n(C)c3cnc4ccc(-c5cncc(N6CCOCC6)c5)cc4c32)n(C)n1 [Example 175.2, 1-(2,5-Dimethyl-2H-pyrazol-3-yl)-3-methyl-8-(5-morpholin-4-yl-pyridin-3-yl)-1,3-dihydro-imidazo[4,5-c]quinolin-2-one]	360		155	32
Cc1nn(C)cc1-n1c(=O)n(C)c2cnc3ccc(-c4cncc(OCCF)c4)cc3c21 [Example 181, 1-(1,3-Dimethyl-1H-pyrazol-4-yl)-8-[5-(2-fluoro-ethoxy)-pyridin-3-yl]-3-methyl-1,3-dihydro-imidazo[4,5-c]quinolin-2-one]	62		10	3
COc1ncc(-c2ccc3ncc4c(c3c2)n(-c2cn(C)nc2Cl)c(=O)n4C)cc1CO [Example 200, 1-(3-Chloro-1-methyl-1H-pyrazol-4-yl)-8-(5-hydroxymethyl-6-methoxy-pyridin-3-yl)-3-methyl-1,3-dihydro-imidazo[4,5-c]quinolin-2-one]	7		3	< 0.5
COCc1cc(-c2ccc3ncc4c(c3c2)n(-c2cn(C)nc2Cl)c(=O)n4C)cnc1OC [Example 201, 1-(3-Chloro-1-methyl-1H-pyrazol-4-yl)-8-(6-methoxy-5-methoxymethyl-pyridin-3-yl)-3-methyl-1,3-dihydro-imidazo[4,5-c]quinolin-2-one]	10		27	1
Cc1nn(C(C)C)cc1-n1c(=O)n(C)c2cnc3ccc(-c4cncc(C(O)(CF)CF)c4)cc3c21 [Example 219, 8-[5-(2-Fluoro-1-fluoromethyl-1-hydroxy-ethyl)-pyridin-3-yl]-1-(1-isopropyl-3-methyl-1H-pyrazol-4-yl)-3-methyl-1,3-dihydro-imidazo[4,5-c]quinolin-2-one]	297		139	6
CCn1cc(-n2c(=O)n(C)c3cnc4ccc(-c5cncc(C6(C#N)CCC6)c5)cc4c32)c(C)n1 [Example 221.2, 1-{5-[1-(1-Ethyl-3-methyl-1H-pyrazol-4-yl)-3-methyl-2-oxo-2,3-dihydro-1H-imidazo[4,5-c]quinolin-8-yl]-pyridin-3-yl}-cyclobutanecarbonitrile]	56		56	1
CC(=O)Nc1cc(-c2ccc3ncc4c(c3c2)n(-c2cn(C)nc2C)c(=O)n4C)cnc1Cl [Example 222, N-{2-Chloro-5-[1-(1,3-dimethyl-1H-pyrazol-4-yl)-3-methyl-2-oxo-2,3-dihydro-1H-imidazo[4,5-c]quinolin-8-yl]-pyridin-3-yl}-acetamide]	68		22	4
Cc1nn(C)cc1-n1c(=O)n(C)c2cnc3ccc(-c4cnc(Cl)c(NS(C)(=O)=O)c4)cc3c21 [Example 223, N-{2-Chloro-5-[1-(1,3-dimethyl-1H-pyrazol-4-yl)-3-methyl-2-oxo-2,3-dihydro-1H-imidazo[4,5-c]quinolin-8-yl]-pyridin-3-yl}-methanesulfonamide]	103		< 3	35
Cc1nn(C)cc1-n1c(=O)n(C)c2cnc3ccc(-c4cnc(N)c(C(=O)NC(C)C)c4)cc3c21 [Example 225, 2-Amino-5-[1-(1,3-dimethyl-1H-pyrazol-4-yl)-3-methyl-2-oxo-2,3-dihydro-1H-imidazo[4,5-c]quinolin-8-yl]-N-isopropyl-nicotinamide]	69		26	4
COCCNC(=O)c1cc(-c2ccc3ncc4c(c3c2)n(-c2cn(C)nc2C)c(=O)n4C)cnc1N [Example 226, 2-Amino-5-[1-(1,3-dimethyl-1H-pyrazol-4-yl)-3-methyl-2-oxo-2,3-dihydro-1H-imidazo[4,5-c]quinolin-8-yl]-N-(2-methoxy-ethyl)-nicotinamide]	433		169	7
